# Assay results: publication PMC11594981 (International Journal of Molecular Sciences, 2024)
# Molecular target: T1, CYP3A4 (Homo sapiens, UniProt P08684)
# T1 construct: recombinant CYP3A4 (BACULOSOMES Plus reagent)
# Assay: fluorogenic substrate turnover by recombinant CYP3A4 (Vivid kit)
# Format: biochemical
# T1 sequence (P08684 2-503): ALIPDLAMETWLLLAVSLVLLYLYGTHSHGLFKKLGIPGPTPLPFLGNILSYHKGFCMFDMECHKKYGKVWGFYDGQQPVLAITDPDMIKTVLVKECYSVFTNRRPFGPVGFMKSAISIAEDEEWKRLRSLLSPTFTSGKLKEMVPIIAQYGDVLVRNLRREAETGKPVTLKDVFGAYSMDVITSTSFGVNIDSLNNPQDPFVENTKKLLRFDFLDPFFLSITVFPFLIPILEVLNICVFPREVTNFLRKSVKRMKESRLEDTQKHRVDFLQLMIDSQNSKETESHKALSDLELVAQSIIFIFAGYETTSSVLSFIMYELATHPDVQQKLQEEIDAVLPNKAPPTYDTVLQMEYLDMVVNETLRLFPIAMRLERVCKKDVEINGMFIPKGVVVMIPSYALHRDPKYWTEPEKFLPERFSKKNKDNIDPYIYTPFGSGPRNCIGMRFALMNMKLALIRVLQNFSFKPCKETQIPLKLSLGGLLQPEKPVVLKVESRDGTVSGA
smiles,measurement,value
"N#Cc1cc2ccc(OCOCc3ccccc3)cc2oc1=O [BOMCC, 7-benzyloxymethoxy-3-cyano-coumarin]",fluorogenic substrate turnover by recombinant CYP3A4 (Vivid kit),Inhibition of BOMC transformation by CYP3A4 in the presence of ivermectin
